Reference: paper PMC9486889 (Japanese Journal of Clinical Oncology, 2022)

Tests used:
[1] = Cardiovascular assessments; type: in vivo, Japanese patients
HDAC1 = conditions: cited from earlier work
HDAC2 = conditions: cited from earlier work
HDAC10 = conditions: cited from earlier work
[2] = pre-clinical study, no reference given; cited from earlier work

Nc1cc(F)ccc1NC(=O)c1ccc(CNC(=O)/C=C/c2cccnc2)cc1 [HBI-8000, tucidinostat]
Absolute QTcF >450 ms ([1]; 30 mg BIW cohort): three
QTcF increase of >30 ms from baseline ([1]; 40 mg BIW cohort): three
Absolute QTcF prolonged to >500 ms ([1]; both cohorts): none
QTcF increase >60 ms from baseline ([1]; both cohorts): none
Inhibition of HDAC activity (HDAC1): selectively inhibits
Inhibition of HDAC activity (HDAC2): selectively inhibits
Inhibition of HDAC activity (HDAC10): selectively inhibits
Effect on cardiovascular system including changes in QTc prolongation [2]: did not induce any effect
